# Laboratory results from patent US4383992A, “Water-soluble steroid compounds” (priority 1982, dated 1983).
# Assay: Dissolution of steroid with alpha-cyclodextrin in aqueous suspension
# Format: physicochemical
# Settings: 120 mg alpha-cyclodextrin added to 5 ml aqueous suspension, room temperature, agitated for several minutes
# Protocol: 120 mg of alpha-cyclodextrin was added to 5 ml of an aqueous suspension of dexamethasone at room temperature.
structure (smiles),measurement,value
"C[C@@H]1C[C@H]2[C@@H]3CCC4=CC(=O)C=C[C@]4(C)[C@@]3(F)[C@@H](O)C[C@]2(C)[C@@]1(O)C(=O)CO [dexamethasone, 9-Fluoro-11β,17,21-trihydroxy-16α-methylpregna-1,4-diene-3,20-dione]",dissolution of steroid with alpha-cyclodextrin,did not dissolve and remained in suspension
